# Experimental data from patent US11369665B2, “Anti-inflammatory peptides and composition comprising the same” (GemVax & KAEL Co., Ltd., priority 2012, dated 2022).
# Columns and labels:
# amyloid-β protein = molecular target: T1, amyloid-β protein (Homo sapiens, UniProt P05067); test: Amyloid-β aggregation; assay type: biochemical
# T1 construct: co-treated with 1 μM amyloid beta protein and PEP 1 (0.1, 1 and 10 μM)
# From the text: In addition, we investigated the response of PEP-1 to the amyloid-β aggregation.
# neural stem cells = test: Co-treatment amyloid-β and PEP-1: cell mobility (migration); assay type: cell-based, rat; details: 20 μM amyloid-β protein
# From the text: Cell mobility is a vital matter due to the nature of neural stem cell. […] (Refer to FIG. 11).
# cytokines = test: qRT-PCR of cytokine levels in THP1 cell line; assay type: cell-based, human; details: PMA-differentiated THP-1, LPS 10 ng/ml and 4 μM peptide, 4 hr, FIG. 3
# Description: As a Human acute monocytic leukemia cell line, THP-1 monocyte cell line ([…] TYPE CULTURE COLLECTION® (Manassas, Va., USA) was used to reconfirm the effects of PEP 1. Cells were grown at a density of 0.5-7×10^5 cells/mL in RPMI 1640 containing 10% FBS, 0.05 mM 2-mercaptoethanol, 100 U/ml penicillin, 100 μg/mL streptomycin, and maintained at 37° C. under 5% CO2. THP-1 cells were differentiated into macrophages by treating cells with phorbol myristate acetate (PMA) at 100 ng/mL for 24 hr at 37° C. for 24 hr.
# Following differentiation into macrophages, THP-1 cells were washed two times using complete RPMI 1640 (5 min/wash). Then, cells were treated for 4 hr. with 10 ng/ml LPS and/or 4 μM peptide RIA in FBS free RPMI 1640.
# Total RNA samples were isolated from peptide-treated THP-1 cells by using Trizol (QIAZOL®) reagent and, and cDNA was synthesized by reverse transcriptase PCR using reverse transcription PCR kit from PROMEGA CORPORATION® following manufacturer's protocol.
# Then, real-Time qPCR was performed using CFX96 (BIO-RAD®) instrument with SYBR® Green qPCR system. Primers used in the experiments are found in Table 5. The PCR cycling conditions were 95° C. for 10 min for activation of HotStart DNA Taq Polymerase, followed by 45 cycles of 95° C. for 10 sec. […] All samples were measured in triplicate and differences in gene expression were calculated using the 2-cycle threshold method. […]
# T1 sequence (P05067 672-713 limits assumed): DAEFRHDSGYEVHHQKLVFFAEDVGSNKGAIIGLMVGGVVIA
sequence,measurement,setting,value
EARPALLTSRLRFIPK [PEP-1],aggregation of amyloid-β protein during induction,"amyloid-β protein; 1 μM amyloid beta protein co-treated with PEP 1 0.1, 1 and 10 μM, FIG. 16A",inhibited
same,amyloid-β protein already induced for aggregation,amyloid-β protein; FIG. 16B,underwent degradation
same,cell mobility decreased by amyloid-β,neural stem cells; FIG. 11,restored
same,cell mobility compared to control,neural stem cells; PEP-1 10 μM,increased even more
same,cytokines involved in the inflammatory responses (qRT-PCR),cytokines,decreased noticeably
